pIC50: −log10 of the molar value.
Molecular target: T1, bovine cardiac myofibrils (Bos taurus, UniProt Q9BE39)
T1 construct: full-length cardiac myosin in the context of the native sarcomere, skinned myofibril assays were performed; from tissue; host or cells: bovine cardiac left ventricular tissue, detergent-skinned (Triton X-100) myofibrils
Experiment: Skinned myofibril ATPase assay (PK/LDH-coupled), CDMF75
Type: biochemical
Conditions: inhibition of steady-state ATPase activity of bovine cardiac myofibrils at 75% Ca2+ activation (pCa75)
Protocol: To evaluate the effect of compounds on the ATPase activity of full-length cardiac myosin in the context of the native sarcomere, skinned myofibril assays were performed. Bovine cardiac myofibrils were obtained by homogenizing bovine cardiac left ventricular tissue in the presence of a detergent such as triton X-100. Such treatment removes membranes and a majority of the soluble cytoplasmic proteins but leaves intact the cardiac sarcomeric acto-myosin apparatus. Myofibril preparations retain the ability to hydrolyze ATP in an Ca^2+ regulated manner. ATPase activities of such myofibril preparations in the presence and absence of compounds were assayed at Ca^2+ concentrations activating to a defined fraction of the maximal rate (i.e., 25%, 75%). Small molecule agents were assessed for their ability to inhibit the steady-state ATPase activity of bovine cardiac myofibrils using pyruvate kinase and lactate dehydrogenase (PK/LDH)-coupled enzyme system. This assay regenerates myosin-produced ADP into ATP by oxidizing NADH, producing an absorbance change at 340 nm. Prior to testing small molecule agents, the bovine cardiac myofibrils were assessed for their calcium responsiveness and the calcium concentration that achieves either a 50% (pCa50) or 75% (pCa75) activation of the myofibril system was chosen as the final condition for assessing the inhibitory activity of the small molecule agents. All enzymatic activity was measured in a buffered solution containing 12 mM PIPES (piperazine-N,N′-bis(2-ethanesulfonic acid), 2 mM magnesium chloride at pH 6.8 (PM 12 buffer). Final assay conditions were 1 mg/mL of bovine cardiac myofibrils, 4 U/mL pyruvate kinase, 6 U/mL lactate dehydrogenase, 50 μM ATP, 0.1 mg/mL BSA (bovine serum albumin), 10 ppm antifoam, 1 mM DTT, 0.5 mM NADH, 1.5 mM PEP, 0.6 mM EGTA, and an amount of CaCl2 sufficient to achieve either 50% or 75% activation of the myofibril ATPase activity. Results for compounds tested are provided in Table A. Compounds tested were prepared in accordance with the synthetic procedures described herein.

T1 sequence (Q9BE39 whole entry): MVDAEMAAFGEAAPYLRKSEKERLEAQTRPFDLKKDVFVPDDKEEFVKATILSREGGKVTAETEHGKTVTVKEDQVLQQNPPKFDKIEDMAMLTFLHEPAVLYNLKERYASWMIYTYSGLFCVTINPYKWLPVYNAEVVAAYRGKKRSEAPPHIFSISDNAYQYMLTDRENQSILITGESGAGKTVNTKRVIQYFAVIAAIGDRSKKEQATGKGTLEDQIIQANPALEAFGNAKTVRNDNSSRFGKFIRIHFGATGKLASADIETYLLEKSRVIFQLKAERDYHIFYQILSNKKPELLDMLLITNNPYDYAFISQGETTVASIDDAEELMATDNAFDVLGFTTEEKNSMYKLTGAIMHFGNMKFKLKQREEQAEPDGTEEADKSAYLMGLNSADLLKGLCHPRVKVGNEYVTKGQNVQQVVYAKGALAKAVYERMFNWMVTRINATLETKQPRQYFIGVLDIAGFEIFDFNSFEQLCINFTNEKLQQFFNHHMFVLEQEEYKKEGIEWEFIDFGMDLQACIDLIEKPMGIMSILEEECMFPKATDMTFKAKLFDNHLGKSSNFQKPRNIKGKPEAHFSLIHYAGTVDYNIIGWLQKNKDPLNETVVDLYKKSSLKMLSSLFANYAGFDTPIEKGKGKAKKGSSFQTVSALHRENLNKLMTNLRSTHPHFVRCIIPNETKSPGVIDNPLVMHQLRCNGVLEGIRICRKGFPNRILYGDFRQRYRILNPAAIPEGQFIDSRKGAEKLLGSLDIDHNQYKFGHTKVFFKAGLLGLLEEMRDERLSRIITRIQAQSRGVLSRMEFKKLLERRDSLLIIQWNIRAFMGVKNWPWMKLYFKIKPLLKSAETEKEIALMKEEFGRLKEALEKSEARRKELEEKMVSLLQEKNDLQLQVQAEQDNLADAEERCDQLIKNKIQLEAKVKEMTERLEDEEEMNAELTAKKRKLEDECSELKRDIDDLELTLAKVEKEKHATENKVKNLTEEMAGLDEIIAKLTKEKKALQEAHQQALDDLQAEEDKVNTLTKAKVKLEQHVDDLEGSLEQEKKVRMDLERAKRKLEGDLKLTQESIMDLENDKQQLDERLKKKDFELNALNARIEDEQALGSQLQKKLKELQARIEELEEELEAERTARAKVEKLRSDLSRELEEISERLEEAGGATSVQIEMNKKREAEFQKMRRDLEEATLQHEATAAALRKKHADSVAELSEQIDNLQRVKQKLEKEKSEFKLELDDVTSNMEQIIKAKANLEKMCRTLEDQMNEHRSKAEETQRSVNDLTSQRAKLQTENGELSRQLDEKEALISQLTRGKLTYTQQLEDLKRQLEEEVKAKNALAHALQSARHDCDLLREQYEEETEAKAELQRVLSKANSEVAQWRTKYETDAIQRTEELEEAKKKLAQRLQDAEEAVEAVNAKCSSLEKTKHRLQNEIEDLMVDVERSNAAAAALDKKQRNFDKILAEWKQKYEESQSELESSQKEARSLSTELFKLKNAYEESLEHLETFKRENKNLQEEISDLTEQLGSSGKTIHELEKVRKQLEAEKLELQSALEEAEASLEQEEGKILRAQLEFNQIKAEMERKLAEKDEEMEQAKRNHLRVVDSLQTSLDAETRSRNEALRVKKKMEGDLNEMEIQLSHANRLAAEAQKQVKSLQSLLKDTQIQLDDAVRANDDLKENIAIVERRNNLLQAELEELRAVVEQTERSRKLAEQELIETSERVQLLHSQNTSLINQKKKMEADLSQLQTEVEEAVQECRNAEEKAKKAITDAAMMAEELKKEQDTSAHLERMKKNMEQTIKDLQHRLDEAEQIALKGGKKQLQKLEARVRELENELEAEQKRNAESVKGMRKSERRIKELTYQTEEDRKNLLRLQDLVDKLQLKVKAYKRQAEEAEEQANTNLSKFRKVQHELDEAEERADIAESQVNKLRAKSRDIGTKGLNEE
T1 sequence (P85100 whole entry partner): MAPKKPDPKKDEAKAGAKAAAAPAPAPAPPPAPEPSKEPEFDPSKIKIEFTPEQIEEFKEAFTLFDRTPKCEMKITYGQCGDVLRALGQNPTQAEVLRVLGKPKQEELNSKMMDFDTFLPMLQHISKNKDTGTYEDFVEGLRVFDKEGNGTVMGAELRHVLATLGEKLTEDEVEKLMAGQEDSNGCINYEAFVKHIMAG
T1 sequence (Q3SZE5 whole entry partner): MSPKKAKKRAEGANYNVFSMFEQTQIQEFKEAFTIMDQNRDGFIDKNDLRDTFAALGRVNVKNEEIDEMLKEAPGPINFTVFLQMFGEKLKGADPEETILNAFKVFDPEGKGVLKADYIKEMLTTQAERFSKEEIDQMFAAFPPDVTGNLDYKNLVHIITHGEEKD

SMILES	CDMF75 IC15 [nM]	pIC50
Cc1nc(-c2ccc(CNc3cncc(Cl)n3)cc2)no1 [Compound 1, 6-chloro-N-(4-(5-methyl-1,2,4-oxadiazol-3-yl)benzyl)pyrazin-2-amine]	1400	5.09
Cc1nc(-c2ccc(CNc3cnccn3)cc2)no1 [Compound 2, N-(4-(5-methyl-1,2,4-oxadiazol-3-yl)benzyl)pyrazin-2-amine]	800	5.37
Cc1nc(-c2ccc(CNc3ccncn3)cc2)no1 [Compound 3, N-(4-(5-methyl-1,2,4-oxadiazol-3-yl)benzyl)pyrimidin-4-amine]	3600	4.56
Cc1cc(NCc2ccc(-c3noc(C)n3)cc2)ncn1 [Compound 4, 6-methyl-N-(4-(5-methyl-1,2,4-oxadiazol-3-yl)benzyl)pyrimidin-4-amine]	1900	5.18
Cc1nc(-c2ccc(CNc3cc(C(F)(F)F)ncn3)cc2)no1 [Compound 5, N-(4-(5-methyl-1,2,4-oxadiazol-3-yl)benzyl)-6-(trifluoromethyl)pyrimidin-4-amine]		5.43
Cc1nc(-c2ccc(CNc3cc(C4CC4)ncn3)cc2)no1 [Compound 6, 6-cyclopropyl-N-(4-(5-methyl-1,2,4-oxadiazol-3-yl)benzyl)pyrimidin-4-amine]		4.57
Cc1nc(-c2ccc(CNc3cc(C#N)ncn3)cc2)no1 [Compound 7, 6-((4-(5-methyl-1,2,4-oxadiazol-3-yl)benzyl)amino)pyrimidine-4-carbonitrile]		5.74
CCc1cc(NCc2ccc(-c3noc(C)n3)cc2)ncn1 [Compound 8, 6-ethyl-N-(4-(5-methyl-1,2,4-oxadiazol-3-yl)benzyl)pyrimidin-4-amine]	3100	4.78
Cc1nc(-c2ccc(CNc3cc(Cl)ncn3)cc2)no1 [Compound 9, 6-chloro-N-(4-(5-methyl-1,2,4-oxadiazol-3-yl)benzyl)pyrimidin-4-amine]	300	5.92
Cc1nc(-c2ccc(CNc3cnc(C#N)cn3)cc2)no1 [Compound 10, 5-((4-(5-methyl-1,2,4-oxadiazol-3-yl)benzyl)amino)pyrazine-2-carbonitrile]	1300	5.12
CCc1nc(-c2ccc(CNc3cc(C#N)ncn3)cc2)no1 [Compound 11, 6-((4-(5-ethyl-1,2,4-oxadiazol-3-yl)benzyl)amino)pyrimidine-4-carbonitrile]	200	6.15
Cc1nc(-c2ccc(CNc3ccnc(Cl)n3)cc2)no1 [Compound 12, 2-chloro-N-(4-(5-methyl-1,2,4-oxadiazol-3-yl)benzyl)pyrimidin-4-amine]	2500	5.01
Cc1nc(-c2ccc(CNc3cnc(Cl)cn3)cc2)no1 [Compound 13, 5-chloro-N-(4-(5-methyl-1,2,4-oxadiazol-3-yl)benzyl)pyrazin-2-amine]	300	5.82
Cc1nc(-c2ccc(CNc3ccc(C#N)cn3)cc2)no1 [Compound 14, 6-((4-(5-methyl-1,2,4-oxadiazol-3-yl)benzyl)amino) nicotinonitrile]	4600	4.68
Cc1nc(-c2ccc(CNc3cc(C#N)ccn3)cc2)no1 [Compound 15, 2-((4-(5-methyl-1,2,4-oxadiazol-3-yl)benzyl)amino) isonicotinonitrile]	1000	5.26
Cc1nc(-c2ccc(CNc3cnc(C(F)(F)F)cn3)cc2)no1 [Compound 16, N-(4-(5-methyl-1,2,4-oxadiazol-3-yl)benzyl)-5-(trifluoromethyl)pyrazin-2-amine]	3100	4.76

SMILES	CDMF75 IC15 [nM]	pIC50
Cc1nc(-c2ccc(CNc3cc(C#N)ncn3)nc2)no1 [Compound 17, 6-(((5-(5-methyl-1,2,4-oxadiazol-3-yl)pyridin-2-yl)methyl)amino)pyrimidine-4-carbonitrile]	2900	4.72
Cc1noc(-c2ccc(CNc3cc(Cl)ncn3)cc2)n1 [Compound 18, 6-chloro-N-(4-(3-methyl-1,2,4-oxadiazol-5-yl)benzyl)pyrimidin-4-amine]	400	5.68
Cc1nc(-c2ccc(CNc3ccc(Cl)cn3)cc2)no1 [Compound 20, 5-chloro-N-(4-(5-methyl-1,2,4-oxadiazol-3-yl)benzyl)pyridin-2-amine]	1500	5.28
Cc1nc(-c2ccc(C(C)Nc3cc(Cl)ncn3)cc2)no1 (centres unmarked) [Compound 21, 6-chloro-N-(1-(4-(5-methyl-1,2,4-oxadiazol-3-yl)phenyl)ethyl)pyrimidin-4-amine]	2200	4.89
c1cnc(NCc2ccc(-c3noc(C4CC4)n3)cc2)cn1 [Compound 22, N-(4-(5-cyclopropyl-1,2,4-oxadiazol-3-yl)benzyl)pyrazin-2-amine]	400	5.74
c1cnc(NCc2ccc(-c3noc(C4CCC4)n3)cc2)cn1 [Compound 23, N-(4-(5-cyclobutyl-1,2,4-oxadiazol-3-yl)benzyl)pyrazin-2-amine]	300	5.85
FC(F)c1nc(-c2ccc(CNc3cnccn3)cc2)no1 [Compound 24, N-(4-(5-(difluoromethyl)-1,2,4-oxadiazol-3-yl)benzyl)pyrazin-2-amine]	800	5.51
FCc1nc(-c2ccc(CNc3cnccn3)cc2)no1 [Compound 25, N-(4-(5-(fluoromethyl)-1,2,4-oxadiazol-3-yl)benzyl)pyrazin-2-amine]	1100	5.35
Cc1nc(-c2ccc(C(C)Nc3cnccn3)cc2)no1 (centres unmarked) [Compound 26, N-(1-(4-(5-methyl-1,2,4-oxadiazol-3-yl)phenyl)ethyl)pyrazin-2-amine]	1100	5.25
Cc1cnc(-c2ccc(CNc3cc(Cl)ncn3)cc2)o1 [Compound 27, 6-chloro-N-(4-(5-methyloxazol-2-yl)benzyl)pyrimidin-4-amine]	1200	5.05
Cc1cnn(-c2ccc(CNc3cnccn3)cc2)c1 [Compound 29, N-(4-(4-methyl-1H-pyrazol-1-yl)benzyl)pyrazin-2-amine]	8100	4.41
COC(=O)c1nc(-c2ccc(CNc3cnccn3)cc2)no1 [Compound 30, methyl 3-(4-((pyrazin-2-ylamino)methyl)phenyl)-1,2,4-oxadiazole-5-carboxylate]	500	5.59
C[C@@H](Nc1cnccn1)c1ccc(-c2noc(C3CC3)n2)cc1 [Compound 31, (R)-N-(1-(4-(5-cyclopropyl-1,2,4-oxadiazol-3-yl)phenyl)ethyl)pyrazin-2-amine]	400	5.82
C[C@@H](Nc1cnccn1)c1ccc(-c2noc(C3CCC3)n2)cc1 [Compound 32, (R)-N-(1-(4-(5-cyclobutyl-1,2,4-oxadiazol-3-yl)phenyl)ethyl)pyrazin-2-amine]	300	5.85
C[C@@H](Nc1cnccn1)c1ccc(-c2noc(C(F)F)n2)cc1 [Compound 33, (R)-N-(1-(4-(5-(difluoromethyl)-1,2,4-oxadiazol-3-yl)phenyl)ethyl)pyrazin-2-amine]	300	5.82
